Measurements as given in ChEMBL document CHEMBL1131951, “Sialidase inhibitors related to zanamivir: synthesis and biological evaluation of 4H-pyran 6-ether and ketone” (Bioorg Med Chem Lett, 1999).

What was measured:
[1] = system: Influenza B virus; assay: Inhibitory activity against sialidase of influenza B; type: functional, organism-based
[2] = system: Influenza A virus; assay: Inhibitory activity against sialidase of influenza A; type: functional, organism-based

Row | SMILES | IC50 [1] | IC50 [2]
1 | CCC(CC)C(O)[C@@H]1OC(C(=O)O)=C[C@H](N)[C@H]1NC(C)=O (some centres not stated) | 7400 nM | 39 nM
2 | CC(=O)N[C@H]1[C@H]([C@H](O)[C@H](O)CO)OC(C(=O)O)=C[C@@H]1NC(=N)N [ZANAMIVIR] | 4 nM | 5 nM
3 | CCC(CC)C(=O)[C@@H]1OC(C(=O)O)=C[C@H](N)[C@H]1NC(C)=O | 470 nM | 2 nM
4 | CCN(CC)C(=O)[C@@H]1OC(C(=O)O)=C[C@H](N)[C@H]1NC(C)=O | 360 nM | 3 nM
5 | CCC(CC)O[C@@H]1OC(C(=O)O)=C[C@H](N)[C@H]1NC(C)=O | 42000 nM | 770 nM
6 | CCC(CC)O[C@@H]1C=C(C(=O)O)C[C@H](N)[C@H]1NC(C)=O [OSELTAMIVIR CARBOXYLATE] | 32 nM | 2 nM
